Measured values from ChEMBL document CHEMBL1201862, “PubChem BioAssay data set” (2004).
Calls of active or inactive are those of the source.

How the values were obtained:
[1] = viability loss in Vero cells – cytotoxicity control for Vif-APOBEC3G degradation inhibitor project, dose response (AID 1117358); type: functional; conditions: Vero
[2] = target: T1, Rac GTPase-activating protein 1 (Homo sapiens, UniProt Q9H0H5); assay: blockers of MgcRacGAP-driven Rac1 GTP hydrolysis – biochemical, ADP Hunter fluorescence, primary and confirmatory, confirmation (AID 624330); type: functional
T1 sequence (Q9H0H5 whole entry): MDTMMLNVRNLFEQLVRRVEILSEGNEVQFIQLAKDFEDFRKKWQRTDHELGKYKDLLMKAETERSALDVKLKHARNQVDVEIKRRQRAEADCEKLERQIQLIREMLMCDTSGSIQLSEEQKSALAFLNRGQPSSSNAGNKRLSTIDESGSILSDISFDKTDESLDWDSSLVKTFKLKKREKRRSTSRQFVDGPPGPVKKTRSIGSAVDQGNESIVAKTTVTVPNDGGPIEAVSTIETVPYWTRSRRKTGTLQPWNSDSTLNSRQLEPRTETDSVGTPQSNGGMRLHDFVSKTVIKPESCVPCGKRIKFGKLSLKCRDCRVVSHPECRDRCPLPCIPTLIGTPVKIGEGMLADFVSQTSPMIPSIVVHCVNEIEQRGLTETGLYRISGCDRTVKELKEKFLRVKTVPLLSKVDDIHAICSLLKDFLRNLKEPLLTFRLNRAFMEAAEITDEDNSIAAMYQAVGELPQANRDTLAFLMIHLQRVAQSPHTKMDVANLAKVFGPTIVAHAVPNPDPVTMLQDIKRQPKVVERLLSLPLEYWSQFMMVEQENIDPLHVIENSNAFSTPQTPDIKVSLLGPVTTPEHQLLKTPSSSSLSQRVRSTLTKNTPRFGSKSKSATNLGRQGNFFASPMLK

Major prion protein = Major prion protein (Homo sapiens, UniProt P04156); type: functional, cell-based
[3] = blockers of HIV-1 ZM109 envelope-driven cell-cell fusion – HeLa effector, CEM target cells, luciferase, cherry-pick, dose response (AID 652058); type: functional, cell-based;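 note: luciferase signal from HIV-1 Env mediated cell-cell fusion of effector and target cells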
[4] = off-target signal loss in HeLa-CEM21 co-culture – HeLa F-luc CTL cells, cherry-picked, counter-screen for HIV-1 Env fusion inhibitor project, dose response (AID 652040); type: functional, cell-based;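 note: potency for signal decrease marking cytotoxic or nonspecific inhibition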
[5] = viability loss in CEM21 cells – cell-based, CellTiter-Glo luminescence, cherry-picked, cytotoxicity control for viral fusion inhibitor project, dose response (AID 652042); type: functional;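 note: potency for signal decrease meaning cytotoxicity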
[6] = blockers of HIV-1 envelope-mediated cell-cell fusion – cherry-pick, dose response (AID 652057); type: functional, cell-based
[7] = HIV-1 AD8 envelope cell-cell fusion blockers – cherry-pick, dose response (AID 652062); type: functional, cell-based;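 note: luciferase signal from cell-cell fusion driven by HIV-1 clade B AD8 Env; potency is for inhibitors of fusion seen as a drop in luminescence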
[8] = target: 1-phosphatidylinositol 4,5-bisphosphate phosphodiesterase gamma-1 (Homo sapiens, UniProt P19174); assay: Counterscreen for inhibitors of phospholipase C isozymes (PLC-B3): Fluorescence-based biochemical high throughput dose response assay to identify inhibitors of phospholipase C isozymes (PLC-gamma1).
[9] = target: 1-phosphatidylinositol 4,5-bisphosphate phosphodiesterase beta-3 (Homo sapiens, UniProt Q01970); assay: Fluorescence-based biochemical high throughput dose response assay to identify inhibitors of phospholipase C isozymes (PLC-B3).
[10] = viability loss in THP-1 monocytes – THP-1 cells, cytotoxicity control for Vif-APOBEC3G degradation inhibitor project, dose response (AID 1117359); type: functional; conditions: THP-1
[11] = target: T2, RNA-binding protein pos-1 (Caenorhabditis elegans, UniProt G5EF15); assay: disruptors of C. elegans POS-1 RNA interaction – biochemical, fluorescence polarization, dose response (AID 1964);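 note: purified POS-1 fused to maltose binding protein made in E. coli; potency of compounds blocking POS-1 binding to fluorescent RNA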
T2 sequence (G5EF15 whole entry): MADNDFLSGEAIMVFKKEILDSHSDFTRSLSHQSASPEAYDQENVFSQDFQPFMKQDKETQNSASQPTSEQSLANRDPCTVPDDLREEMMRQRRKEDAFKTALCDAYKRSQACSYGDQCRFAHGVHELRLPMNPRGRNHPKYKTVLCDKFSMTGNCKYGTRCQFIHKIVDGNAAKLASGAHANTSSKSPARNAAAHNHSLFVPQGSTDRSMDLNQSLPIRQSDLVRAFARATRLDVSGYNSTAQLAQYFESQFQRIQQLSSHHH

[12] = target: T3, Zinc finger protein mex-5 (Caenorhabditis elegans, UniProt Q9XUB2); assay: potency of MEX-5 RNA-binding blockers – biochemical, C. elegans, fluorescence polarization, dose response (AID 1960)
T3 sequence (Q9XUB2 whole entry): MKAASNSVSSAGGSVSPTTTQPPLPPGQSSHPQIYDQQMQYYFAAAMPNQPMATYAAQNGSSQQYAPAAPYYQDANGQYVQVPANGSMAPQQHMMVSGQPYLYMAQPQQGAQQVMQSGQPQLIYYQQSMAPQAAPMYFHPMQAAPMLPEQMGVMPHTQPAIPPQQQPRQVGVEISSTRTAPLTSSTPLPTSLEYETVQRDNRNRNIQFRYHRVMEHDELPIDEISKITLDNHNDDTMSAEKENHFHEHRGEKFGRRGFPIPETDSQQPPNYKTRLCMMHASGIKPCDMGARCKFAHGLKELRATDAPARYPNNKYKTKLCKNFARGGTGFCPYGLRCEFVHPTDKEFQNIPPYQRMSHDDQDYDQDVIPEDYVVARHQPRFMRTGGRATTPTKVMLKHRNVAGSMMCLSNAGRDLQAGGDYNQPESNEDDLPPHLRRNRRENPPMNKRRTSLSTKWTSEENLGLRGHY

[13] = target: SWI/SNF-related matrix-associated actin-dependent regulator of chromatin subfamily A member 2 (Homo sapiens, UniProt P51531); assay: Luminescence-based cell-based high throughput dose response assay to identify activators of the function of SWI/SNF related, matrix associated, actin dependent regulator of chromatin, subfamily a, member 2 (SMARCA2, BRM).; type: functional
[14] = Counterscreen for activators of the function of SWI/SNF related, matrix associated, actin dependent regulator of chromatin, subfamily a, member 2 (SMARCA2, BRM): Luminescence-based cell-based high throughput dose response assay to identify non-selective compounds using the VP16 reporter assay.; type: functional
HeLa = assay: viability loss in HeLa cells – cell-based, ATP luminescence, cherry-pick samples, cytotoxicity control, dose response (AID 687004); type: functional; conditions: Homo sapiens
[15] = general cell-killing toxicity readout – plate reader, dry powder samples, cytotoxicity control for PAX8 inhibitor project, dose response (AID 743021); type: functional, cell-based
Paired box protein Pax-8 = Paired box protein Pax-8 (Homo sapiens, UniProt Q06710); assay: PAX8 transcriptional activity inhibition in RMG-I – RMG-I cells, luciferase, cherry-pick, dose response (AID 687027); type: functional, cell-based;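 note: luciferase reporter driven by Pax8 target thyroperoxidase promoter measured by SteadyGlo luminescence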

With `Cc1ccc(Nc2nc(C(=O)NCc3ccco3)cs2)cc1` the CC50 [1] was > 40 µM (active).

In the case of `CC(C)c1nc(SCC(=O)Nc2ccc(N(C)C)cc2)c2ccccc2n1`, the IC50 (cells) is reported as 58.2 µM (inactive), the IC50 [2] is reported as 196 µM (active) and the IC50 (Major prion protein) is reported as 2.94 µM (active).

With `COC(=O)N1[C@H](C)C=C[C@]1(Cc1ccccc1)C(=O)NCCCNc1ncc(C(F)(F)F)cc1Cl` the AC50 [3] was 6.11 µM (active), the AC50 [4] was 6.96 µM (active) and the AC50 [5] was 48.6 µM (active). For the same molecule, the AC50 [6] was 3.42 µM (active) and the AC50 [7] was 11.9 µM (active).

In the case of `COc1ccc(N=C(S)NCCc2ccccc2OC)c(OC)c1`, the CC50 [1] is reported as > 40 µM (active).

With `CC(C)(C)C1CCC(C(=O)Nc2ccccc2)CC1` (stereo not drawn) the IC50 [8] was > 122 µM (inactive) and the IC50 [9] was > 122 µM (inactive).

With `CCn1c(=O)oc2cc(NC(=O)CCl)ccc21` the CC50 [10] was > 40 µM (active).

In the case of `CCCCNC(=O)c1cc2c(=O)n3cccc(C)c3nc2n(Cc2ccncc2)c1=N`, the EC50 [11] is reported as 24.3 µM (inconclusive), the EC50 [12] is reported as 39.6 µM (inconclusive) and the EC50 [13] is reported as > 91.1 µM (inactive). The EC50 [14] was > 91.1 µM (inactive).

For `O=C1/C(=C\c2ccco2)CCC/C1=C\c1ccco1`, the CC50 [10] was > 40 µM (active).

With `N=C(N)NS(=O)(=O)c1ccc(NC(=S)NC(=O)c2ccc3c(c2)OCO3)cc1` the IC50 (cells) was > 138 µM (inactive) and the IC50 (Major prion protein) was 15.1 µM (inactive).

In the case of `Cc1ccc2nc(C)c3c(c2c1)OC(C(C)(Cl)Br)C3` (stereo not drawn), the AC50 (HeLa) is reported as > 52 µM (inactive).

With `CC1(C)CC(=O)C=C(C#CC2(O)CCCCC2)C1` the AC50 [15] was 64.8 µM (active) and the AC50 (Paired box protein Pax-8) was 4.34 µM (active).
